Test results as given in patent EP1101821A1, “NOVEL PROTEIN AND ITS DNA” (Takeda Chemical Industries, Ltd., priority 1998, dated 2000).

Molecular target: recombinant human lung-derived phosphodiesterase V (Homo sapiens, UniProt O76074)
Experiment: Inhibitor screening system: [3H]cGMP SPA phosphodiesterase enzyme assay
Protocol: A 96-well microplate (OPTI Plate, Packard) received 10 µL of a buffer solution [0.5M Tris-HCl (pH7.5), 83 mM MgCl2, 17 mM EGTA], 10 µL of the recombinant human lung-derived phosphodiesterase V obtained in Example 3 (0.025 mg/ml), 65 µL of an ultrapure water, 5 µL of an inhibitor sample and 10 µL of [^3H]cGMP, and reacted at 30°C for 30 minutes. After completion of the reaction, 50 µL of a SPA beads solution [18 mg/ml Yttrium silicate beads, 18 mM ZnSO4] was added and allowed to stand at room temperature for about 20 minutes, and then subjected to a scintillation counting (Topcount, Packard).

- IC50: 2.29 nM
SMILES: Cc1c2c(c(-c3ccc(F)cc3)c3c4c(ccc13)OCO4)C(=O)NC2=O [Formula 1]
